In ChEMBL document CHEMBL3826953, “Development of Autotaxin Inhibitors: An Overview of the Patent and Primary Literature” (J Med Chem, 2016):
One block for each compound: values may come before it.

Key:
[1] = Half life in human; format: ADME, organism-based; conditions: in vivo
Autotaxin [2] = molecular target: T1, Autotaxin (Mus musculus, UniProt Q9R1E6); test: Inhibition of ATX in mouse plasma assessed as inhibition of LPA production after 2 hrs by LC-MS/MS analysis; format: cell-free
Autotaxin [3] = molecular target: T1, Autotaxin; test: Inhibition of recombinant mouse ATX using lysophosphatidylcholine as substrate by choline release assay
Autotaxin [4] = molecular target: Autotaxin (Rattus norvegicus, UniProt Q64610); test: Inhibition of ATX in rat plasma assessed as inhibition of LPA production after 2 hrs by LC-MS/MS analysis; format: cell-free
Autotaxin [5] = molecular target: T2, Autotaxin (Homo sapiens, UniProt Q13822); test: Inhibition of human recombinant ATX using FS3 as substrate incubated for 30 mins by fluorescence assay
Autotaxin [6] = molecular target: T2, Autotaxin; test: Inhibition of recombinant ATX in human […] cells using lysophosphatidylcholine as substrate preincubated for 15 mins followed by substrate addition measured after 90 mins by choline release assay; format: cell-based
Autotaxin [7] = molecular target: T2, Autotaxin; test: Mixed-type inhibition of human recombinant ATX using FS3 as substrate assessed as enzyme-substrate-inhibitor complex incubated for 2 hrs by Michaelis-Menten equation analysis
Autotaxin [8] = molecular target: T2, Autotaxin; test: Mixed-type inhibition of human recombinant ATX using FS3 as substrate assessed as enzyme-inhibitor complex incubated for 2 hrs by Michaelis-Menten equation analysis
Autotaxin [9] = molecular target: T2, Autotaxin; test: Inhibition of human recombinant ATX using FS3 as substrate incubated for 2 hrs by fluorescence assay
[10] = Oral bioavailability in Lewis rat at 1 to 100 mg/kg administered through gavage measured up to 24 hrs by LC-MS/MS analysis; format: ADME, organism-based; conditions: in vivo
[11] = Plasma concentration in Lewis rat air pouch model of inflammation at 100 mg/kg, po administered through gavage 1 hr before carrageenan injection measured after 3 hrs by LC-MS/MS analysis relative to control; format: ADME, organism-based
[12] = Clearance in Lewis rat at 1 mg/kg, iv measured up to 24 hrs by LC-MS/MS analysis; format: ADME, organism-based; conditions: in vivo
[13] = Effective half life in Lewis rat at 1 mg/kg, iv measured up to 24 hrs by LC-MS/MS analysis; format: ADME, organism-based; conditions: in vivo, read-out: t1/2eff (converted)
[14] = Plasma concentration in Lewis rat air pouch model of inflammation at 3 mg/kg, po administered through gavage 1 hr before carrageenan injection measured after 3 hrs by LC-MS/MS analysis relative to control; format: ADME, organism-based
Rattus norvegicus [15] = test: In vivo inhibition of ATX in Lewis rat air pouch model of inflammation assessed as inhibition of carrageenan-induced LPA production in plasma at 100 mg/kg, po administered through gavage 1 hr before carrageenan injection measured after 3 hrs by LC-MS/MS analysis relative to control; format: functional
Rattus norvegicus [16] = test: In vivo inhibition of ATX in Lewis rat air pouch model of inflammation assessed as inhibition of carrageenan-induced LPA production in pouch fluid at 100 mg/kg, po administered through gavage 1 hr before carrageenan injection measured after 3 hrs by LC-MS/MS analysis relative to control; format: functional
Autotaxin [17] = molecular target: T2, Autotaxin; test: Inhibition of recombinant ATX (unknown origin) expressed in baculovirus infected Hi5 cells using L-alpha-lysophosphatidylcholine as substrate preincubated for 30 mins followed by substrate addition measured after 90 mins by AmplexRed dye based fluorescence plate reader analysis; conditions: BTI-TN-5B1-4
Autotaxin [18] = molecular target: T2, Autotaxin; test: Inhibition of recombinant human C-terminal His-tagged ATX expressed in HEK293E cells using lysophosphatidylcholine as substrate preincubated with enzyme followed by substrate addition measured after 1 hr by AmplexRed dye based fluorescence assay
Autotaxin [19] = molecular target: T2, Autotaxin; test: Inhibition of recombinant ATX in human Hep3B cells using lysophosphatidylcholine as substrate preincubated for 15 mins followed by substrate addition measured after 1.5 to 3 hrs by choline release assay; format: cell-based, Hep 3B2
Autotaxin [20] = molecular target: T2, Autotaxin; test: Inhibition of recombinant human ATX using CPF4 as substrate measured after 3 hrs by fluorescence assay
Autotaxin [21] = molecular target: T2, Autotaxin; conditions: 10 uM
Description: Inhibition of recombinant human ATX at 10 uM using lysophosphatidylcholine (14:0) as substrate measured after 2 hrs by AmplexRed dye based fluorescence assay relative to control

Autotaxin [22] = molecular target: T2, Autotaxin; test: Inhibition of recombinant human C-terminal V5/His6-tagged ATX expressed in HEK293 cells assessed as residual activity at 10 uM using oleoyl-lysophosphatidylcholine as substrate incubated for 16 hrs by choline release assay relative to control
Autotaxin [23] = molecular target: T2, Autotaxin; test: Inhibition of recombinant human C-terminal V5/His6-tagged ATX expressed in HEK293 cells assessed as residual activity at 100 uM using oleoyl-lysophosphatidylcholine as substrate incubated for 16 hrs by choline release assay relative to control
Autotaxin [24] = molecular target: T2, Autotaxin; test: Inhibition of recombinant human C-terminal V5/His6-tagged ATX expressed in HEK293 cells assessed as choline release at 0.5 uM using oleoyl-lysophosphatidylcholine as substrate incubated for 18 hrs by non-linear regression analysis
Autotaxin [25] = molecular target: T2, Autotaxin; test: Inhibition of recombinant human C-terminal V5/His6-tagged ATX expressed in HEK293 cells assessed as residual activity at 1 uM using oleoyl-lysophosphatidylcholine as substrate incubated for 16 hrs by choline release assay relative to control
Autotaxin [26] = molecular target: T2, Autotaxin; test: Inhibition of recombinant human C-terminal V5/His6-tagged ATX expressed in HEK293 cells assessed as choline release at 0.5 uM using oleoyl-lysophosphatidylcholine as substrate incubated for 18 hrs by linear regression analysis
Autotaxin [27] = molecular target: T2, Autotaxin; test: Inhibition of recombinant ATX in human MDA-MB-435 cells at 10 uM using FS3 as substrate fluorescence assay relative to control; format: cell-based

IC50 (Autotaxin [6]): < 300 nM
SMILES: Cc1c(Sc2cccc(C(=O)O)n2)c2ccc(Cl)cc2n1-c1cnn(C)c1

IC50 (Autotaxin [19]): < 500 nM
SMILES: N#C/C(=C\c1nn(Cc2ccc(F)cc2)c2cc(Cl)ccc12)c1ccc(C(=O)O)cc1

Activity (Autotaxin [22]): 13% | Activity (Autotaxin [23]): 6% | Ki (Autotaxin [24]): 1300 nM | Activity (Autotaxin [25]): 27% | Ki (Autotaxin [26]): 390 nM
SMILES: CCCCCCCCCCCCCCCC(=O)N[C@@H](Cc1ccc(OCc2ncc(C)c(OC)c2C)cc1)[C@@H](O)CP(=O)(O)O

inhibition (Autotaxin [27]): 0%
SMILES: CCn1cc(C(=O)O)c(=O)c2cnc(N3CCN(C(=S)NCc4cc(Cl)cc(Cl)c4)CC3)nc21

More lines, now with the values behind:

SMILES: CCc1nc2c(C)cc(N3CCN(CC(=O)N4CC(O)C4)CC3)cn2c1N(C)c1nc(-c2ccc(F)cc2)c(C#N)s1 [ZIRITAXESTAT]
half-life [1]: 5 h | IC50 (Autotaxin [2]): ≥ 500 nM | IC50 (Autotaxin [3]): 224 nM | IC50 (Autotaxin [4]): ≥ 500 nM

SMILES: O=C(CCc1nc2ccccc2s1)N1CCc2ncnc(Cc3ccc(F)cc3)c2C1
IC50 (Autotaxin [5]): 2.59 nM

SMILES: CCCCCCCCCCCCCCc1ccc(CP(=O)(O)O)cc1
Ki (Autotaxin [7]): 280 nM | Ki (Autotaxin [8]): 270 nM | IC50 (Autotaxin [9]): 170 nM

SMILES: O=C(CCN1CCN(C(=O)OCc2cc(Cl)cc(Cl)c2)CC1)c1ccc2[nH]c(=O)oc2c1
bioavailability [10]: 43% | concentration at 3 h [11]: 2680 nM | clearance [12]: 31 mL/min/kg | half-life [13]: 1.2 h | concentration at 3 h [14]: 79 nM | inhibition in vivo at 100 mg/kg (Rattus norvegicus [15]): ≤ 95% | inhibition in vivo at 100 mg/kg (Rattus norvegicus [16]): ≤ 95%

SMILES: O=C(OCc1cc(Cl)cc(Cl)c1)N1CCC(N2CCN(C(=O)c3ccc4[nH]c(=O)oc4c3)CC2)CC1
INH (Autotaxin [17]): < 1 µM

SMILES: O=C(c1cc(-c2cnn[nH]2)ccn1)N1CCc2nc(NC3Cc4ccccc4C3)ncc2C1
IC50 (Autotaxin [18]): < 1.7 nM

SMILES: O=C(Nc1cccc(F)c1)c1cc(S(=O)(=O)N2CCOCC2)c(Cl)cc1Cl
IC50 (Autotaxin [20]): 31.4 nM | inhibition (Autotaxin [21]): 41%
